Data reported in patent publication US11612606B2, “8-aminoisoquinoline compounds and uses thereof” (priority 2018, dated 2023).
Where two headings read alike, the source gives them in different places.

Target: HPK full length, T165E S171E (Homo sapiens (Human), UniProt Q92918, S171E/T165E)
Experiment: HPK1-FL HTRF enzymatic assay ("HTRF")
Assay type: biochemical
Settings: ATP 1 mM
Summary of the method: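 Full-length HPK1 (T165E/S171E) was preincubated 30 min with compound, then reacted 60 min with biotin-SLP-76 and 1 mM ATP. Phospho-SLP-76 was detected by HTRF (Eu-anti-pSLP76 antibody, SA-XL665) after a further 60 min.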

Chain of HPK full length, T165E S171E (Q92918 whole entry T165E/S171E, looked up): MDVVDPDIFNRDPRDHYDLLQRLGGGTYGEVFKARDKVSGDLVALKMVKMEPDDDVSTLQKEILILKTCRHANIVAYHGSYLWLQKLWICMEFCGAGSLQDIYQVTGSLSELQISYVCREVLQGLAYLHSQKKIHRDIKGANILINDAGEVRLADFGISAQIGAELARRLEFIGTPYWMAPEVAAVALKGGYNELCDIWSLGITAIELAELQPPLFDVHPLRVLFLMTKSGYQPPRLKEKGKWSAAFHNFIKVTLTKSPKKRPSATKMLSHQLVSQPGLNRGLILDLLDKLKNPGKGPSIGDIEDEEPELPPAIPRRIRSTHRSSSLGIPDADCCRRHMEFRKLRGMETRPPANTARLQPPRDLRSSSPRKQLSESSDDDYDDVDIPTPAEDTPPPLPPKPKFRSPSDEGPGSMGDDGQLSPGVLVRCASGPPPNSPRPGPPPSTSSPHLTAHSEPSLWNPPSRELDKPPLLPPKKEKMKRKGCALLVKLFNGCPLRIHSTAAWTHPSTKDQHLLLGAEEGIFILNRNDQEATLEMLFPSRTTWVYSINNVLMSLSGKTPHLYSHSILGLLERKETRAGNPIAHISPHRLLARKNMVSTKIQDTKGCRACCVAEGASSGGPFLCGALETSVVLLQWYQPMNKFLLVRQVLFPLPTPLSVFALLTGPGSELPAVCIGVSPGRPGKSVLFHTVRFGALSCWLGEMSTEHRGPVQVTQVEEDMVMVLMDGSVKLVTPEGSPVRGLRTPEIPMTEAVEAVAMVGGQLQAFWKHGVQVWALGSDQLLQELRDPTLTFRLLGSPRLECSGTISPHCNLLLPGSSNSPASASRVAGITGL

SMILES | Ki (HPK1 Ki) | Ki (read-out: HPK1 Ki)
CO[C@H]1CC[C@@H](NC(=O)Nc2cc3cc(-c4cnc5c(c4C)NCCO5)c(F)c(N)c3cn2)C1 [Compound 730c, 1-(8-amino-7-fluoro-6-(8-methyl-2,3-dihydro-1H-pyrido[2,3-b][1,4]oxazin-7-yl)isoquinolin-3-yl)-3-((1R,3S)-3-methoxycyclopentyl)urea] | < 0.013 nM | –
Cc1c(-c2cc3cc(NC(=O)N[C@H]4CCOC[C@H]4F)ncc3c(N)c2F)cnc2c1NCCO2 (single isomer, unassigned) [Compound 747a] | < 0.013 nM | –
Cc1c(-c2cc3cc(NC(=O)N4CC5(CCOCC5)C4)ncc3c(N)c2F)cnc2c1NCCO2 [Compound 753, N-(8-Amino-7-fluoro-6-(8-methyl-2,3-dihydro-1H-pyrido[2,3-b][1,4]oxazin-7-yl)isoquinolin-3-yl)-7-oxa-2-azaspiro[3.5]nonane-2-carboxamide] | – | 0.039 nM
CCC(=O)N1CC(OC(=O)Nc2cc3cc(-c4cnc5c(c4C)NCCC5)c(F)c(N)c3cn2)C1 [Compound 492, 1-Propionylazetidin-3-yl (8-amino-7-fluoro-6-(4-methyl-5,6,7,8-tetrahydro-1,5-naphthyridin-3-yl)isoquinolin-3-yl)carbamate] | – | 0.055 nM
Cc1c(-c2cc3cc(NC(=O)OC4CN(C)C4)ncc3c(N)c2F)cnc2c1NCCO2 [Compound 402, 1-Methylazetidin-3-yl (8-amino-7-fluoro-6-(8-methyl-2,3-dihydro-1H-pyrido[2,3-b][1,4]oxazin-7-yl)isoquinolin-3-yl)carbamate] | – | 0.11 nM
Cc1c(-c2cc3cc(NC(=O)OCC4(F)CN(C)C4)ncc3c(N)c2F)cnc2c1NCCO2 [Compound 450, (3-Fluoro-1-methyl-azetidin-3-yl)methyl N-[8-amino-7-fluoro-6-(8-methyl-2,3-dihydro-1H-pyrido[2,3-b][1,4]oxazin-7-yl)-3-isoquinolyl]carbamate] | – | 0.13 nM
Cc1c(-c2cc3cc(NC(=O)O[C@H]4CN(C)C[C@H]4C)ncc3c(N)c2F)cnc2c1NCCO2 (single isomer, unassigned) [Compound 442b] | – | 0.201 nM
Cc1c(-c2cc3cc(NC(=O)N[C@H]4[C@@H]5COC[C@@H]54)ncc3c(N)c2F)cnc2c1NCCO2 [Compound 713a, 1-(8-Amino-7-fluoro-6-(8-methyl-2,3-dihydro-1H-pyrido[2,3-b][1,4]oxazin-7-yl)isoquinolin-3-yl)-3-((1R,5S,6r)-3-oxabicyclo[3.1.0]hexan-6-yl)urea] | – | < 0.013 nM
Cc1c(-c2cc3cc(NC(=O)N[C@H]4CCCOC4)ncc3c(N)c2F)cnc2c1NCCO2 (single isomer, unassigned) [Compound 711a] | – | < 0.013 nM
Cc1c(-c2cc3cc(NC(=O)OC4CC5(C4)CN(C4COC4)C5)ncc3c(N)c2F)cnc2c1NCCO2 [Compound 443, 2-(Oxetan-3-yl)-2-azaspiro[3.3]heptan-6-yl (8-amino-7-fluoro-6-(8-methyl-2,3-dihydro-1H-pyrido[2,3-b][1,4]oxazin-7-yl)isoquinolin-3-yl)carbamate] | – | < 0.013 nM
Cc1c(-c2cc3cc(NC(=O)O[C@H]4CCCN(C)C4)ncc3c(N)c2F)cnc2c1NCCO2 [Compound 416b, (5)-1-Methylpiperidin-3-yl (8-amino-7-fluoro-6-(8-methyl-2,3-dihydro-1H-pyrido[2,3-b][1,4]oxazin-7-yl)isoquinolin-3-yl)carbamate] | – | 0.075 nM
Cc1c(-c2cc3cc(NC(=O)O[C@H]4CC[C@H]4C)ncc3c(N)c2F)cnc2c1NCCO2 [Compound 559d, [(1S,2R)-2-methylcyclobutyl]N-[8-amino-7-fluoro-6-(8-methyl-2,3-dihydro-1H-pyrido[2,3-b][1,4]oxazin-7-yl)-3-isoquinolyl]carbamate] | – | < 0.013 nM
Cc1c(-c2cc3cc(NC(=O)OC4CC5(CCNCC5)C4)ncc3c(N)c2F)cnc2c1NCCO2 [Compound 580, 7-Azaspiro[3.5]nonan-2-yl (8-amino-7-fluoro-6-(8-methyl-2,3-dihydro-1H-pyrido[2,3-b][1,4]oxazin-7-yl)isoquinolin-3-yl)carbamate] | – | < 0.013 nM
